In the METLIN SMRT retention time set (Domingo-Almenara et al. 2019) one finds RP-LC retention time data, which are given here for 80 compounds.

The nature of this data set: gradient 5% acetonitrile 3 min, to 50% in 2 min, to 85% in 15 min, held 3 min, 100 µL/min. The conditions noted are these: column: Zorbax Extend-C18 2.1 x 50 mm; eluents: water / acetonitrile, 0.1% formic acid. A digest of the protocol:
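Each retention time is based on an adduct peak selected computationally and verified by manual inspection. Measurements used HPLC–quadrupole time-of-flight mass spectrometry in positive and negative ionization mode on mixtures of ~100 pure standards. Chromatography ran on a Zorbax Extend-C18 column (2.1 × 50 mm, 1.8 μm) at 100 μL/min with water and acetonitrile, each containing 0.1% formic acid, and dead and dwell volumes of 40 μL and 900 μL.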
On to `O=C1CCN(Cc2ccc(F)cc2F)CCOCCN1`, for which the RP-LC retention time was 561 s. Take `Cc1ncoc1C(=O)N(C)C1CCc2nn(CC3CC3)c(=O)n2CC1` (stereo not given): the RP-LC retention time is 594 s.

Take `COC(=O)CNC(=O)N1CCCN(c2nc3cc(F)ccc3n3cccc23)CC1`: the RP-LC retention time came to 612 s. `O=C(NCc1ccc2c(c1)CCCN2C(=O)C1CCC1)c1cc(F)ccc1Cl` gave an RP-LC retention time of 884 s. As to `Fc1ccccc1-c1noc(Cc2nnc(-c3cccc(Br)c3)o2)n1`, the RP-LC retention time was determined as 1110 s. On to `Cc1ccnc(N2CCC(C(=O)NCCCN3CCCc4ccccc43)CC2)n1`, for which the RP-LC retention time stood at 665 s.

Take `CCOC(=O)c1[nH]c(C)c(C(=O)N2CCC(CC(=O)NC3CCCC3)CC2)c1C`: the RP-LC retention time worked out at 696 s. In turn, `COc1ccc(Cl)cc1S(=O)(=O)N1CCC(C(=O)Nc2ccccc2F)CC1` yielded an RP-LC retention time of 921 s. In the case of `COc1ccc(C(=O)Nc2c(-c3ccccc3)nc3ccccn23)c(OC)c1`, the RP-LC retention time is 664 s. The compound `COc1ccc(Cl)cc1NC(=O)CSc1ccc(N2CCCC(C(=O)NC3CC3)C2)nn1` (stereo not given) registered an RP-LC retention time of 753 s. Compound `Clc1ccc(OCc2nc(-c3ccc4c(c3)ncn4CCN3CCCC3)no2)cc1` returned an RP-LC retention time of 690 s. As for `CC(=O)NCc1ccc(-c2noc(-c3ccc(N(C)C)cc3)n2)s1`, the RP-LC retention time amounted to 861 s. `Cn1c(N2CCCC(C(=O)N3CCN(c4ccc(Cl)cc4)CC3)C2)cc(=O)n(C)c1=O` (stereo not given) showed an RP-LC retention time of 800 s. In turn, `COC(=O)c1ccc(CN2CCC(c3nnc(C(F)(F)F)o3)CC2)o1` yielded an RP-LC retention time of 560 s.

As for `CCNS(=O)(=O)c1cccnc1Nc1ccccc1F`, the RP-LC retention time worked out at 948 s. With `O=C(NC1CCCCC1)c1ccc2c(c1)nc1n2CCN(C2CCCCC2)C1=O` the figure was 796 s; with `COc1ccc(-n2c(=O)n(C)c(=O)c3cc(C(=O)Nc4cc(F)ccc4C)cnc32)cc1`, 893 s; with `CCOC(=O)c1[nH]c(C)c(CCC(=O)NC(C)c2ccc3c(c2)OCCO3)c1C` (stereo not given), 821 s. For `O=C(CCCn1c(=O)c2cccn2c2ccccc21)N1CCN(c2ccccn2)CC1`, the RP-LC retention time turned out to be 625 s.

Regarding `O=C(Nc1ccc(N2CCN(c3ccccc3)C2=O)nc1)c1ccc(F)cc1`, the RP-LC retention time worked out at 934 s.

Compound `O=C(c1ccc2c(c1)OCO2)N1CCCn2nc(-c3ccncc3)cc2C1` yielded an RP-LC retention time of 584 s. In the case of `CCCCNC(=O)Cn1c(=O)c2cccn2c2ccc(F)cc21`, the RP-LC retention time is 773 s. Regarding `CCCN1CCN(C(=O)C2CCN(S(=O)(=O)c3ccc4c(c3)sc(=O)n4CCC)CC2)CC1`, the RP-LC retention time was determined as 658 s. Take `COCCN1CCC2(CC1)CN(Cc1cc(OC)ccc1OC)Cc1ccccc1O2`: the RP-LC retention time turned out to be 597 s. `Cc1cccc2nnc(N3CCCC(C(=O)Nc4ccc5c(c4)OCO5)C3)n12` (stereo not given) registered an RP-LC retention time of 664 s.

`Cc1cc(=O)n(CC(=O)Nc2cccc(Cl)c2)c(N2CCc3ccccc3C2)n1`: the RP-LC retention time was 859 s.

`O=C(Nc1nnc(-c2ccncc2)o1)c1cc(=O)c2ccccc2o1`: the RP-LC retention time amounted to 600 s. As to `CCn1cc(CCN2CCN(C(=O)c3ccc(Br)cc3)CC2)c2cccnc21`, the RP-LC retention time was determined as 629 s. With `CCN(CC)S(=O)(=O)c1c(C)[nH]c(=O)[nH]c1=O` the figure was 578 s.

`COc1ccc(CNC(=O)Cc2cn(C)c3ncccc23)c(OC)c1` came in with an RP-LC retention time of 676 s.

As to `CCn1cc(CCNC(=O)c2ccccc2Br)c2cccnc21`, the RP-LC retention time stood at 700 s. Compound `COc1ccc(-c2nnc(-c3cccnc3N3CCC4(CC3)OCCO4)o2)cc1` yielded an RP-LC retention time of 875 s. `COc1c(C(=O)N2CCN(c3ccccc3F)CC2)sc2cccc(F)c12` showed an RP-LC retention time of 1100 s.

`Cc1c(-c2nnc(C3CC3)o2)c(S(=O)(=O)N2CCN(C(C)C)CC2)c(C)n1C` displayed an RP-LC retention time of 610 s. On to `CCc1ccc(N2C(=O)CN(S(C)(=O)=O)CC2(C)C(=O)NCc2ccc(C)cc2)cc1` (stereo not given), for which the RP-LC retention time was determined as 898 s.

`Cc1[nH]c(C(=O)N2CCN(c3ccccc3F)CC2)c(C)c1S(=O)(=O)N1CCOCC1` gave an RP-LC retention time of 793 s. `CN1CCN(CCCNC(=O)CC2CCN(C(=O)c3cc4cc(Cl)ccc4[nH]3)CC2)CC1`: the RP-LC retention time turned out to be 569 s. With `CC1CN(CC(=O)N2CCN(Cc3ccc4c(c3)OCO4)CC2)c2ccccc2S1` (stereo not given) the figure was 723 s. On to `CSc1ccc(CNC(=O)CN2CCc3[nH]c4c(C)cc(F)cc4c(=O)c3C2)cc1`, for which the RP-LC retention time is 638 s. In turn, `CCN1C(=O)c2ccccc2Oc2ccc(C(=O)NCc3cc(OC)ccc3OC)cc21` displayed an RP-LC retention time of 932 s. In turn, `CS(=O)(=O)N1CCC(C(=O)Nc2nc3c(s2)COCC3)CC1` registered an RP-LC retention time of 604 s. `COc1cccc(NC(=O)c2csc(-c3cn(C)c4ncccc34)n2)c1` gave an RP-LC retention time of 978 s. `Cc1cccc(-c2csc3c(=O)n(Cc4ccccn4)cnc23)c1` displayed an RP-LC retention time of 877 s.

With `OCCNc1nc(N2CCOCC2)nc2c1cnn2-c1ccc(Cl)cc1`, the RP-LC retention time turned out to be 824 s. `CCOCCc1c(O)nc(SC)[nH]c1=O`: the RP-LC retention time is 650 s. With `CNC(=O)C1CCCN1C(=O)Nc1cccc(C)c1` (stereo not given) the figure was 635 s; with `COc1ccc(CCc2nc3nccc(-c4ccccn4)n3n2)cc1`, 837 s. `Cc1cc(C(F)F)n2nc(C(=O)Nc3ccc(Br)cc3)nc2n1` gave an RP-LC retention time of 891 s. On to `COc1ccc(-c2ncc3c(n2)CCN(C(=O)c2ccc(F)cc2Cl)C3)cc1`, for which the RP-LC retention time came to 971 s. As for `O=C(NCC1CCCO1)C1CCN(S(=O)(=O)c2ccc(-c3noc(C4CC4)n3)cc2)CC1` (stereo not given), the RP-LC retention time was 789 s. `O=C(c1ccsc1)N1CCN(c2nnc3c(Cl)cccn23)CC1` registered an RP-LC retention time of 635 s. The value for `COc1ccc(-c2nnc(-c3ccc(C)c(S(=O)(=O)Nc4ccc(Cl)cn4)c3)o2)cc1OC` was 918 s; that for `COc1ccc(N2CC(c3noc(-c4cc(OC)c(OC)c(OC)c4)n3)CC2=O)cc1` (stereo not given) was 787 s. With `CC(C)CNC(=O)C1CCN(c2nc3ccc(-c4cncnc4)nc3s2)CC1` the figure was 663 s; with `CC1(C)CS(=O)(=O)N(c2ccc(C(=O)NCCc3c[nH]c4ccccc34)cc2)C1=O`, 825 s. In turn, `COc1ccc(-c2nnc(-c3ccc(C)c(S(=O)(=O)N4CCCCC4)c3)o2)cc1OC` registered an RP-LC retention time of 1060 s.

The compound `O=C(Cc1csc(NC(=O)C2CC2)n1)Nc1ccc(Cl)c(Cl)c1` yielded an RP-LC retention time of 827 s. Compound `Cc1cccc(NC(=O)Cn2cnc3c(c2=O)CCCC3)c1` showed an RP-LC retention time of 706 s. The value for `CCC(C)NC(=O)CCCn1c(=O)c2cccn2c2ccc(Br)cc21` (stereo not given) was 894 s; that for `Cc1nnc(CNC(=O)OC(C)(C)C)n1-c1ccccc1` was 624 s; that for `Cc1ccc(S(=O)(=O)NC2CCN(c3ncnc4c3CCC4)C2)cc1` (stereo not given) was 628 s. Take `CCn1cc(-c2nc(C)c(C(=O)NCc3ccccc3)s2)c2cccnc21`: the RP-LC retention time came out at 784 s. As to `Cc1ccc(Cl)cc1NC(=O)N1CCC(CC(=O)N2CCCCC2)CC1`, the RP-LC retention time was 801 s. Consider `Cc1ccc(-c2noc(Cn3ccn(-c4ccccc4C)c(=O)c3=O)n2)cc1`, for which the RP-LC retention time was 680 s. In turn, `O=C(NCCCn1ccnc1)C(=O)NCCC1=CCCCC1` displayed an RP-LC retention time of 571 s. On to `Cc1nc2cccnc2n1C1CCN(C(=O)Nc2ccccc2Cl)CC1`, for which the RP-LC retention time amounted to 635 s.

`O=C(CN1CCN(Cc2ccc(F)cc2Cl)C1=O)NCC1CCCCC1` yielded an RP-LC retention time of 927 s. `O=C(O)c1cn2ccnc(-c3ccc(F)cc3)c2n1` had an RP-LC retention time of 688 s. In turn, `Cc1ccc(N(C)S(=O)(=O)c2c(C)sc(C)c2-c2cc(C(F)(F)F)on2)cc1C` gave an RP-LC retention time of 1370 s.

On to `O=c1ccc(-c2cccs2)nn1CCNS(=O)(=O)c1ccc(F)c(Cl)c1`, for which the RP-LC retention time was 796 s. With `COc1ccc(NC(=O)C2=Cc3cc(Br)ccc3OC2)c(OC)c1` the figure was 1120 s; with `O=S(=O)(Cc1ccccc1Cl)NCCN1CCN(c2ccc(F)cc2)CC1`, 591 s. The compound `Cn1nc(-c2nc(C3CC3)no2)c2c1CCN(C(=O)c1ccc(F)c(F)c1)C2` came in with an RP-LC retention time of 831 s.

In turn, `O=C(c1ccc(F)c(Cl)c1)N1CCc2nc[nH]c2C1` showed an RP-LC retention time of 592 s. The compound `COC(=O)c1cnc2nc(C)ccc2c1Nc1cc(Cl)ccc1C` came in with an RP-LC retention time of 716 s. Turning to `COc1ccc(CNC(=O)C2(C)Cn3nc(C)cc3C(=O)N2c2ccc(F)cc2)cc1` (stereo not given), the RP-LC retention time was found to be 764 s.

`CCn1nnc2c(N3CCOCC3)nc(-c3ccc(NC(=O)Nc4ccc(C(=O)N5CCN(C)CC5)cc4)cc3)nc21` yielded an RP-LC retention time of 690 s. `COC(=O)c1cc(OCC(=O)NCc2ccc3c(c2)OCO3)c2cc(F)ccc2n1` displayed an RP-LC retention time of 785 s. `CCN1c2ccccc2C(=O)NC12CCN(C(=O)NC1CCCCC1)CC2` gave an RP-LC retention time of 771 s. `Cc1cnn(CCC(=O)N2CCCCCCNC(=O)[C@@H]3CCCC[C@@H]32)c1` returned an RP-LC retention time of 728 s.
